Measurements reported in PubChem BioAssay AID1963831 (Molecular Pharmacology Branch, DTP, NCI, 2024).

System: 889142-216-R-J1-PDC complex spheroid viability
Assay: Anticancer human tumor 889142-216-R-J1-PDC patient-derived bladder carcinoma cell line growth inhibition [POLQ]
Conditions: for IC50: curve of first compound; for viability, T/C: stronger effect = lower value
Procedure, shortened: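 PDC + HUVEC + MSC complex spheroids; POLQ inhibitors ± partner drugs; top conc. at/near clinical Cmax, else 10 microM (SN-38 1 microM), half-log dilutions; 37 degrees C, 5% CO2.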

[1] = second compound 0.0316 µM, first compound 0.0316 µM
[2] = second compound 0.0316 µM, first compound 0.1 µM
[3] = second compound 0.0316 µM, first compound 0.316 µM
[4] = second compound 0.0316 µM, first compound 1 µM
[5] = second compound 0.0316 µM, first compound 3.16 µM
[6] = second compound 0.0316 µM, first compound 10 µM
[7] = second compound 0.1 µM, first compound 0.0316 µM
[8] = second compound 0.1 µM, first compound 0.1 µM
[9] = second compound 0.1 µM, first compound 0.316 µM
[10] = second compound 0.1 µM, first compound 1 µM
[11] = second compound 0.1 µM, first compound 3.16 µM
[12] = second compound 0.1 µM, first compound 10 µM
[13] = second compound 0.316 µM, first compound 0.0316 µM
[14] = second compound 0.316 µM, first compound 0.1 µM
[15] = second compound 0.316 µM, first compound 0.316 µM
[16] = second compound 0.316 µM, first compound 1 µM
[17] = second compound 0.316 µM, first compound 3.16 µM
[18] = second compound 0.316 µM, first compound 10 µM
[19] = second compound 1 µM, first compound 0.0316 µM
[20] = second compound 1 µM, first compound 0.1 µM
[21] = second compound 1 µM, first compound 0.316 µM
[22] = second compound 1 µM, first compound 1 µM
[23] = second compound 1 µM, first compound 3.16 µM
[24] = second compound 1 µM, first compound 10 µM
[25] = second compound 3.16 µM, first compound 0.0316 µM
[26] = second compound 3.16 µM, first compound 0.1 µM
[27] = second compound 3.16 µM, first compound 0.316 µM
[28] = second compound 3.16 µM, first compound 1 µM
[29] = second compound 3.16 µM, first compound 3.16 µM
[30] = second compound 3.16 µM, first compound 10 µM
[31] = second compound 10 µM, first compound 0.0316 µM
[32] = second compound 10 µM, first compound 0.1 µM
[33] = second compound 10 µM, first compound 0.316 µM
[34] = second compound 10 µM, first compound 1 µM
[35] = second compound 10 µM, first compound 3.16 µM
[36] = second compound 10 µM, first compound 10 µM
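Note: spheroids exposed to compounds for seven days.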
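Throughout, for viability, T/C: 100% = DMSO vehicle control viability.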

With CC1COCCN1c1cc(C2(O)CC3CCC(C2)O3)c2cnn(-c3ccn[nH]3)c2n1 (stereo not drawn) + Cc1cccc(N(C)C(=O)C2C(O)CCN2c2nc(C)cc(C(F)(F)F)c2C#N)c1 the IC50 (second compound 0.0316 µM) was 133 nM, the IC50 (second compound 0.1 µM) was 71 nM and the IC50 (second compound 0.316 µM) was 133 nM. It also gave an IC50 (second compound 1 µM) of 102 nM, an IC50 (second compound 3.16 µM) of 98.8 nM and an IC50 (second compound 10 µM) of 56.5 nM. The viability, T/C [1] was 66.5%, the viability, T/C [2] was 48.2% and the viability, T/C [3] was 42.3%. It also gave a viability, T/C [4] of 34.2%, a viability, T/C [5] of 26.1% and a viability, T/C [6] of 14.6%. It also gave a viability, T/C [7] of 56.7%, a viability, T/C [8] of 48.1% and a viability, T/C [9] of 36.1%. It also gave a viability, T/C [10] of 29%, a viability, T/C [11] of 23.8% and a viability, T/C [12] of 15.2%. The viability, T/C [13] was 66.8%, the viability, T/C [14] was 49.5% and the viability, T/C [15] was 39.8%. For the same compound, the viability, T/C [16] was 34.5%, the viability, T/C [17] was 25.9% and the viability, T/C [18] was 12.4%. It also gave a viability, T/C [19] of 62.7%, a viability, T/C [20] of 48.4% and a viability, T/C [21] of 38.9%. The viability, T/C [22] was 31.2%, the viability, T/C [23] was 22.6% and the viability, T/C [24] was 12.4%. For the same compound, the viability, T/C [25] was 61.5%, the viability, T/C [26] was 47.9% and the viability, T/C [27] was 40%. It also gave a viability, T/C [28] of 30.6%, a viability, T/C [29] of 26.4% and a viability, T/C [30] of 13.7%. For the same compound, the viability, T/C [31] was 55.9%, the viability, T/C [32] was 43.6% and the viability, T/C [33] was 37.6%. For the same compound, the viability, T/C [34] was 29.5%, the viability, T/C [35] was 29.9% and the viability, T/C [36] was 13.3%.
In the case of O=C(Nc1ccc(O)c(NS(=O)(=O)c2ccc(F)cc2)c1)c1ccc(-c2ccccc2)cc1 + Cc1cccc(N(C)C(=O)C2C(O)CCN2c2nc(C)cc(C(F)(F)F)c2C#N)c1, the IC50 (second compound 0.0316 µM) is reported as > 10000 nM, the IC50 (second compound 0.1 µM) is reported as > 10000 nM and the IC50 (second compound 0.316 µM) is reported as > 10000 nM. For the same compound, the IC50 (second compound 1 µM) was > 10000 nM, the IC50 (second compound 3.16 µM) was > 10000 nM and the IC50 (second compound 10 µM) was > 10000 nM. The viability, T/C [1] was 103%, the viability, T/C [2] was 106% and the viability, T/C [3] was 112%. It also gave a viability, T/C [4] of 134%, a viability, T/C [5] of 101% and a viability, T/C [6] of 85.1%. It also gave a viability, T/C [7] of 94.9%, a viability, T/C [8] of 121% and a viability, T/C [9] of 98.1%. For the same compound, the viability, T/C [10] was 127%, the viability, T/C [11] was 126% and the viability, T/C [12] was 86.4%. For the same compound, the viability, T/C [13] was 140%, the viability, T/C [14] was 93.2% and the viability, T/C [15] was 85.9%. The viability, T/C [16] was 120%, the viability, T/C [17] was 112% and the viability, T/C [18] was 80.2%. It also gave a viability, T/C [19] of 96.2%, a viability, T/C [20] of 96.7% and a viability, T/C [21] of 84%. The viability, T/C [22] was 97.5%, the viability, T/C [23] was 131% and the viability, T/C [24] was 70.4%. The viability, T/C [25] was 87.8%, the viability, T/C [26] was 123% and the viability, T/C [27] was 121%. The viability, T/C [28] was 107%, the viability, T/C [29] was 91.2% and the viability, T/C [30] was 77.6%. The viability, T/C [31] was 69.3%, the viability, T/C [32] was 98.9% and the viability, T/C [33] was 97%. It also gave a viability, T/C [34] of 89.6%, a viability, T/C [35] of 85.3% and a viability, T/C [36] of 69.4%.
For CC(=O)O[C@H]1C(=O)[C@@]2(C)[C@H]([C@H](OC(=O)c3ccccc3)[C@]3(O)C[C@H](OC(=O)[C@H](O)[C@@H](NC(=O)c4ccccc4)c4ccccc4)C(C)=C1C3(C)C)[C@]1(OC(C)=O)CO[C@@H]1C[C@@H]2O + Nc1ccc(C#CCN(C(=O)Cc2ncc(C(F)(F)F)cc2C(F)(F)F)c2ccc(F)cc2)nn1, the IC50 (second compound 0.0316 µM) was 72 nM, the IC50 (second compound 0.1 µM) was 907 nM and the IC50 (second compound 0.316 µM) was > 3000 nM. For the same compound, the IC50 (second compound 1 µM) was 1330 nM, the IC50 (second compound 3.16 µM) was < 9.49 nM and the IC50 (second compound 10 µM) was > 3000 nM. It also gave a viability, T/C (second compound 0.0316 µM, first compound 0.00949 µM) of 53.5%, a viability, T/C (second compound 0.0316 µM, first compound 0.03 µM) of 45.8% and a viability, T/C (second compound 0.0316 µM, first compound 0.0949 µM) of 51.5%. For the same compound, the viability, T/C (second compound 0.0316 µM, first compound 0.3 µM) was 50.9%, the viability, T/C (second compound 0.0316 µM, first compound 0.949 µM) was 49.4% and the viability, T/C (second compound 0.0316 µM, first compound 3 µM) was 43.8%. The viability, T/C (second compound 0.1 µM, first compound 0.00949 µM) was 57.1%, the viability, T/C (second compound 0.1 µM, first compound 0.03 µM) was 41.5% and the viability, T/C (second compound 0.1 µM, first compound 0.0949 µM) was 54.6%. It also gave a viability, T/C (second compound 0.1 µM, first compound 0.3 µM) of 51.2%, a viability, T/C (second compound 0.1 µM, first compound 0.949 µM) of 53.1% and a viability, T/C (second compound 0.1 µM, first compound 3 µM) of 47.1%. The viability, T/C (second compound 0.316 µM, first compound 0.00949 µM) was 53%, the viability, T/C (second compound 0.316 µM, first compound 0.03 µM) was 57.2% and the viability, T/C (second compound 0.316 µM, first compound 0.0949 µM) was 46.3%. It also gave a viability, T/C (second compound 0.316 µM, first compound 0.3 µM) of 50.3%, a viability, T/C (second compound 0.316 µM, first compound 0.949 µM) of 61.7% and a viability, T/C (second compound 0.316 µM, first compound 3 µM) of 50.9%. The viability, T/C (second compound 1 µM, first compound 0.00949 µM) was 53.7%, the viability, T/C (second compound 1 µM, first compound 0.03 µM) was 51% and the viability, T/C (second compound 1 µM, first compound 0.0949 µM) was 52%. It also gave a viability, T/C (second compound 1 µM, first compound 0.3 µM) of 50.6%, a viability, T/C (second compound 1 µM, first compound 0.949 µM) of 51.8% and a viability, T/C (second compound 1 µM, first compound 3 µM) of 48.6%. The viability, T/C (second compound 3.16 µM, first compound 0.00949 µM) was 45.2%, the viability, T/C (second compound 3.16 µM, first compound 0.03 µM) was 54% and the viability, T/C (second compound 3.16 µM, first compound 0.0949 µM) was 51.3%. For the same compound, the viability, T/C (second compound 3.16 µM, first compound 0.3 µM) was 46.7%, the viability, T/C (second compound 3.16 µM, first compound 0.949 µM) was 53.3% and the viability, T/C (second compound 3.16 µM, first compound 3 µM) was 57.1%. It also gave a viability, T/C (second compound 10 µM, first compound 0.00949 µM) of 55%, a viability, T/C (second compound 10 µM, first compound 0.03 µM) of 52.2% and a viability, T/C (second compound 10 µM, first compound 0.0949 µM) of 55.5%. For the same compound, the viability, T/C (second compound 10 µM, first compound 0.3 µM) was 59.3%, the viability, T/C (second compound 10 µM, first compound 0.949 µM) was 59.9% and the viability, T/C (second compound 10 µM, first compound 3 µM) was 53.3%.
Work on COc1cccc2c1C(=O)c1c(O)c3c(c(O)c1C2=O)CC(O)(C(=O)CO)CC3OC1CC(N)C(O)C(C)O1 (stereo not drawn) + Nc1ccc(C#CCN(C(=O)Cc2ncc(C(F)(F)F)cc2C(F)(F)F)c2ccc(F)cc2)nn1 yielded an IC50 (second compound 0.0316 µM) of 338 nM, an IC50 (second compound 0.1 µM) of 339 nM and an IC50 (second compound 0.316 µM) of 254 nM. It also gave an IC50 (second compound 1 µM) of 450 nM, an IC50 (second compound 3.16 µM) of 287 nM and an IC50 (second compound 10 µM) of 318 nM. It also gave a viability, T/C [1] of 55.1%, a viability, T/C [2] of 78.9% and a viability, T/C [3] of 52.2%. For the same compound, the viability, T/C [4] was 6.13%, the viability, T/C [5] was 0.74% and the viability, T/C [6] was 1.95%. It also gave a viability, T/C [7] of 71.8%, a viability, T/C [8] of 79.8% and a viability, T/C [9] of 52%. It also gave a viability, T/C [10] of 9.08%, a viability, T/C [11] of 1.08% and a viability, T/C [12] of 1.72%. The viability, T/C [13] was 66.6%, the viability, T/C [14] was 76.2% and the viability, T/C [15] was 44.1%. For the same compound, the viability, T/C [16] was 8.99%, the viability, T/C [17] was 1.03% and the viability, T/C [18] was 1.55%. It also gave a viability, T/C [19] of 77.8%, a viability, T/C [20] of 75.3% and a viability, T/C [21] of 68.6%. For the same compound, the viability, T/C [22] was 7.94%, the viability, T/C [23] was 1.14% and the viability, T/C [24] was 2.34%. The viability, T/C [25] was 66%, the viability, T/C [26] was 77.7% and the viability, T/C [27] was 47.9%. For the same compound, the viability, T/C [28] was 4.28%, the viability, T/C [29] was 0.84% and the viability, T/C [30] was 1.58%. It also gave a viability, T/C [31] of 71.5%, a viability, T/C [32] of 72.3% and a viability, T/C [33] of 50.2%. The viability, T/C [34] was 3.75%, the viability, T/C [35] was 1.07% and the viability, T/C [36] was 1.08%.
